One data set in a line: in vivo. The following applies: beagle, dog, po, 10 mg/kg.
Data set [1] deals with CYP3A. Also noted: CYP3A Activity (percentage of control): dose or concentration left out as unconfirmed.
The test system of data set [2] is CYP3A. Briefly: Determination of CYP3A activity by erythromycin demethylation method (rat liver homogenate/microsomes). Also on record: CYP3A Activity (percentage of control): dose or concentration left out as unconfirmed.
For data set [3] the following is noted: given by mouth; cited from earlier work.
Where [4] appears, read: inhibitor concentration 0.004, Table 1 Inhibition.
Setting [5] is: inhibitor concentration 0.04, Table 1 Inhibition.
Where [6] appears, read: inhibitor concentration 0.4, Table 1 Inhibition.

Read-outs that look alike come from different tables or passages of the source.

As for `CCC(C)(C)C(=O)O[C@H]1C[C@@H](C)C=C2C=C[C@H](C)[C@H](CC[C@@H]3C[C@@H](O)CC(=O)O3)[C@H]21` [Simvastatin], in “in vivo”, the MRT is 2.79 h, the Tmax stood at 0.75 h and the half-life was 1.47 h.

On to `O=C/C=C/c1ccccc1` [Trans-cinnamaldehyde], for which the “inhibitory effects on rat liver CYP3A (in words)” value with CYP3A [1] is given as “particularly effective”. Besides, the “CYP3A Activity (percentage of control)” value in the data set on CYP3A [1] (rat, 15 min, 10.22) is 30.95 ± 1.03 percentage of control.

As to `O=c1c(O)c(-c2ccc(O)cc2)oc2cc(O)cc(O)c12` [kaempferol], the “CYP3A Activity (percentage of control)” value is reported as 111.35 ± 27.88 percentage of control in the data set on CYP3A [2] (enhancer concentration 1.46, Table 2 Enhancement); 73.03 ± 2.30 percentage of control in the data set on CYP3A [2] (setting [4]); 76.57 ± 3.83 percentage of control with CYP3A [2] (setting [5]); 80.11 ± 8.11 percentage of control with CYP3A [2] (setting [6]).

With `O=c1c(O)c(-c2ccc(O)c(O)c2)oc2cc(O)cc(O)c12` [quercetin], the “CYP3A Activity (percentage of control)” value in the data set on CYP3A [2] (setting [4]) is 75.76 ± 7.97 percentage of control; with CYP3A [2] (setting [5]), 77.52 ± 15.98 percentage of control; with CYP3A [2] (setting [6]), 91.62 ± 0.76 percentage of control.

On to `C[C@@H]1O[C@@H](Oc2c(-c3ccc(O)c(O)c3)oc3cc(O)cc(O)c3c2=O)[C@H](O)[C@H](O)[C@H]1O` [quercitrin], for which the entries for the “CYP3A Activity (percentage of control)” value in the data set with CYP3A [2] (setting [4]), in the data set with CYP3A [2] (setting [5]) and in the data set on CYP3A [2] (setting [6]) were 55.06 ± 5.34 percentage of control, 73.56 ± 5.96 percentage of control and 98.67 ± 7.51 percentage of control, respectively.

Take `C=C[C@H]1[C@H](O[C@@H]2O[C@H](CO)[C@@H](O)[C@H](O)[C@H]2O)OC=C2C(=O)OCC[C@]21O` [swertiamarin]: the “CYP3A Activity (percentage of control)” value in the data set on CYP3A [2] (setting [4]) was 79.71 ± 1.76 percentage of control; in the data set on CYP3A [2] (setting [5]), 67.88 ± 0.49 percentage of control; in the data set with CYP3A [2] (setting [6]), 65.63 ± 1.29 percentage of control.

Take `CC(C)(C)c1ccc(C(O)CCCN2CCC(C(O)(c3ccccc3)c3ccccc3)CC2)cc1` (centres unmarked) [terfenadine]: the “fraction of active ingredient quickly changed to metabolites” value in data set [3] is given as 99.5%.

On to `O=c1ccc2ccc(O)cc2o1` [umbelliferone], for which the “CYP3A Activity (percentage of control)” value in the data set with CYP3A [2] (setting [4]) is recorded as 89.00 ± 12.02 percentage of control; in the data set on CYP3A [2] (setting [5]) it was 84.87 ± 6.93 percentage of control; in the data set on CYP3A [2] (setting [6]), 90.00 ± 4.20 percentage of control; in the data set with CYP3A [2] (inhibitor concentration 1.84, Table 1 Inhibition), 76.22 ± 2.73 percentage of control; in the data set with CYP3A [2] (inhibitor concentration 5.43, Table 1 Inhibition) it was 98.85 ± 14.19 percentage of control; in the data set with CYP3A [2] (inhibitor concentration 16.96, Table 1 Inhibition), 90.33 ± 1.63 percentage of control.

On to `O=c1cc(-c2ccccc2)oc2c1ccc1ccccc12` [α-Naphthoflavone], for which the “CYP3A Activity (percentage of control)” value with CYP3A [2] (inhibitor concentration 1.24, Table 1 Inhibition) is recorded as 43.52 ± 2.93 percentage of control.

`CC1=CCC(C(C)(C)O)CC1` (stereo not drawn) [α-terpineol]: in the data set on CYP3A [2] (inhibitor concentration 501.93, Table 1 Inhibition), the “CYP3A Activity (percentage of control)” value is 9.29 ± 1.07 percentage of control.

As to `O=c1cc(-c2ccccc2)oc2ccc3ccccc3c12` [β-Naphthoflavone], the “CYP3A Activity (percentage of control)” value in the data set with CYP3A [2] (inhibitor concentration 0.87, Table 1 Inhibition) is reported as 42.41 ± 4.08 percentage of control.

As for `C=CC(=C)CCC=C(C)C` [β-myrcene], the “CYP3A Activity (percentage of control)” value in the data set with CYP3A [2] (inhibitor concentration 4.3, Table 1 Inhibition) is listed as 55.95 ± 4.45 percentage of control. Further, in the data set with CYP3A [2] (summary of Table 1), the “inhibitory effects on rat liver CYP3A (in words)” value is recorded as “particularly effective”.

Luteolin-7-glycoside: the “CYP3A Activity (percentage of control)” value in the data set with CYP3A [2] (enhancer concentration 0.004, Table 2 Enhancement) is given as 122.89 ± 40.06 percentage of control; with CYP3A [2] (enhancer concentration 0.1, Table 2 Enhancement), 113.09 ± 5.99 percentage of control; with CYP3A [2] (inhibitor concentration 0.0078, Table 1 Inhibition) it was 46.68 ± 0.17 percentage of control; in the data set on CYP3A [2] (setting [5]), 98.71 ± 19.74 percentage of control. Also, the “enhancing effects on rat hepatic CYP3A (in words)” value in the data set with CYP3A [2] (summary of Table 2) is “particularly effective”.

For orientation: MRT means the average time that molecules of a dose stay in the body. By Tmax is commonly meant the time at which the peak concentration occurs. As usually defined, the half-life is the time needed for the level to fall by half in the phase considered.

The values above are taken from patent US7169763B2, “Cytochrome P450 3A inhibitors and enhancers” (priority 2002, dated 2007).
